Ki data for one compound are collected here from ChEMBL document CHEMBL5725428, “15-aryl prostaglandins as EP4 agonists, and methods of use thereof” (2017).

For test [1], the target named is Prostaglandin E2 receptor EP2 subtype (Homo sapiens, UniProt P43116). Kind of test: (§1) cAMP Assay: A 384-well drug plate was prepared to contain 6 test compounds, PGE2 and cAMP in 16 serial dilutions in triplicate, using a Biomek station. HEK-EBNA cells expressing a target PG receptor subtype (EP2 or EP4) were suspended in a stimulation buffer (HBSS, 0.1% BSA, 0.5 mM IBMX and 5 mM HEPES, pH 7.4) in a density of 10^4 cells/5 microliters. The reaction was initiated by mixing 5 microliters drug dilutions with 5 microliters of HEK-EBNA cells in a well, carried out for 30 min at room temperature, and followed by the addition of 5 microliters anti-cAMP acceptor beads in the control buffer with Tween-20 (25 mM NaCl, 0.03% Tween-20, 5 mM HEPES, pH 7.4). After 30 min in the dark at room temperature, the mixtures were incubated with 15 microliters biotinylated-cAMP/streptavidin donor beads in Lysis/Detection buffer (0.1% BSA, 0.3% Tween-20 and 5 mM HEPES, pH 7.4) for 45 min at room temperature. Fluorescence changes were read using a Fusion-alpha microplate reader. It is filed as cell-based.

Test [2] addresses Prostaglandin E2 receptor EP4 subtype (Homo sapiens, UniProt P35408). Described as §1. It is filed as cell-based.

SMILES strings stand for the structures.

Prostaglandin E2 receptor EP2 subtype, sequence (P43116 whole entry): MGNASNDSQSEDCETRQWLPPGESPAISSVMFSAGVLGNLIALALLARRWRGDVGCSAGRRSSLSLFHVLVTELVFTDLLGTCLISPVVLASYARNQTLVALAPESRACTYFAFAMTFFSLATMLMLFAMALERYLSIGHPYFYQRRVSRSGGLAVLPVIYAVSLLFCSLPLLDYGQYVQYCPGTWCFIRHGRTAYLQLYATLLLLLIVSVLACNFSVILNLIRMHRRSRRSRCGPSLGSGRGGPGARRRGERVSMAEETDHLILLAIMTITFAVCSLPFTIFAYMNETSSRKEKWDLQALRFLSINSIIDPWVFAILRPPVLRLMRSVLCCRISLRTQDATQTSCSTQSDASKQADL
Prostaglandin E2 receptor EP4 subtype, sequence (P35408 whole entry): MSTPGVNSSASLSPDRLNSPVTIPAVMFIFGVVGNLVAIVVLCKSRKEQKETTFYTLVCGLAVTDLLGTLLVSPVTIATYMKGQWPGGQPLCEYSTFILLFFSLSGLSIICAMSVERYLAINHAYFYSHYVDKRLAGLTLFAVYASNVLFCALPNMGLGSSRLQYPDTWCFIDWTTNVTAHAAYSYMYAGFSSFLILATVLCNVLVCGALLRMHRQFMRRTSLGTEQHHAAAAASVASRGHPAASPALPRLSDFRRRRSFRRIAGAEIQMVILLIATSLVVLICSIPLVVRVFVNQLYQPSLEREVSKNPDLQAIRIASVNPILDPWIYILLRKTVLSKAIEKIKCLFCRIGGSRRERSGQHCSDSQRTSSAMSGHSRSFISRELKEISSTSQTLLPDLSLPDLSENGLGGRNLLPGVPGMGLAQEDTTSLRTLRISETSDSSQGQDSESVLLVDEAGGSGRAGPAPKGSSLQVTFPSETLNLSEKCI

As for `Cc1cc(Cl)ccc1-c1cc(C(O)/C=C/[C@H]2CCC(=O)N2CCCc2ccc(C(=O)O)cc2)ccc1F` (single isomer, unassigned), the figures for the Ki in test [1] and in test [2] were 7.49 µM and 1.08 µM, respectively.
